Holding throughout (type): cell-based
One data set has as its system S. pneumoniae ATCC 49619. Description: Broth microdilution MIC. Conditions: for MIC: Streptococcus pneumoniae, ATCC49619, S. pneumoniae ATCC 49619, read-out: MIC.
For another data set, the system named is P. aeruginosa ATCC 27853. Description: Broth microdilution MIC. The settings on record: N/O = not observed.
The test system of data set [1] is Human Embryonic Kidney (HEK293) cells. Description: Toxicity on a monolayer of HEK293 cells.
The next data set concerns B. subtilis. Description: Disc diffusion assay, growth inhibition of B. subtilis. The settings on record: Table 1, ✓ = zone of inhibition observed. The source says:
The same 20 top binders and 8 additional predicted to interact with the cleft of the tyrRS mRNA Specifier Loop were selected from subsequent docking and preliminary fluorescence data.
In general terms: In agar diffusion tests the substance spreads into inoculated agar from a disc or well.

Data set [2] relates to B. cereus ATCC 7064. Description: Broth microdilution MIC. Conditions: for MIC: Bacillus cereus, ATCC7064, B. cereus ATCC 7064, read-out: MIC. Background: Dilution methods test growth across graded concentrations, often in twofold steps.
The subject of data set [3] is B. subtilis BGSC 1A1. Description: Broth microdilution MIC. The settings on record: for MIC: Bacillus subtilis, BGSC1A1, B. subtilis BGSC 1A1, 20 h at 37° C., read-out: MIC. How it is done: (§1) Broth microdilution assays^77, 78 were performed with B. subtilis, and S. aureus to determine the lowest compound concentration inhibiting visible growth, i.e., minimum inhibitory concentration (MIC) of the 4 original compounds. […] The insolubility of the fourth compound may account for its lack of antibacterial activity. […] The MICs of each compound are moderate.
(§2) Strains were grown on trypticase soy agar (TSA) with 5% sheep blood at 37° C. for 24 hours. Five isolated colonies were used to inoculate 5 mL cation-adjusted Mueller-Hinton broth (CAMHB) contained in a 50 mL centrifuge tube. The resulting culture was incubated shaking at 200 rpm for 3 hours at 37° C. and then diluted in CAMHB until its turbidity matched that of a 0.5 McFarland standard (OD625 0.08-0.10). After the culture had been standardized against a 0.5 McFarland standard, it was diluted 1:10 in CAMHB and then 5 μL of this dilution was added to the appropriate wells of a 96-well, flat-bottomed tissue culture plate in which each row contained a twofold dilution series of a particular compound ranging in concentration from 0.25 μg/mL to 512 μg/mL. Each plate also included a sterility control well containing CAMHB to which standardized inoculum was not added and a growth control well containing CAMHB to which 5 μL standardized inoculum was added. […] With the exception of the sterility control well, all wells were inoculated within 15 minutes of inoculum preparation to ensure that the starting concentration of bacteria in each well was approximately 5×10^5 CFU/m L. A Tecan Sunrise microplate absorbance reader was used to measure the OD620 of each well before and after 20 h incubation at 37° C. MIC values were recorded as the lowest compound concentration at which no visible growth was observed after this incubation period.

Data set [4] concerns S. aureus ATCC 29213. Description: Broth microdilution MIC.
Text: (§3) The identity and purity of both PKZ 6 and 18 was confirmed by mass spectroscopy. Forty commercially available compounds chosen on the basis of initial in silico selections and similarity to our two hits were screened by disc diffusion assay (DDA) to determine their relative antibacterial activity with S. aureus. […] These 14 compounds were further evaluated by minimum inhibitory concentration assays (MIC)^41,42, and minimum bactericidal assays (MBC)^41 to confirm antibacterial activity, determine the concentration at which S. aureus growth is inhibited in liquid culture (MIC) and if they are acting as bacteriostatic or bactericidal agents (MBC). […] Representative embodiments are shown below.
as §1, §2

The subject of data set [5] is E. coli ATCC 25922. Description: MBC determination. The settings on record: for E. coli (MBC): Table 5 analogs, triplicate experiments, N/O = not observed at concentrations tested (512-0.25 μg/mL). How it is done:
(§4) Following 24 h incubation of these subcultures at 37° C., MBC values were recorded as the lowest compound concentration at which no viable colonies were observed.

Data set [6] has as its system B. subtilis BGSC 1A1. Description: MBC determination. How it is done:
as §4

The test system of data set [7] is E. faecalis ATCC 29212. Description: MBC determination. Conditions: N/O = not observed. How it is done:
as §4

In data set [8] the test system is B. cereus ATCC 7064. Description: MBC determination. The method, then: as §4
For data set [9], the system named is E. coli ATCC 25922. Description: Broth microdilution MIC (Gram negative specificity control). Conditions: for antibacterial activity against E. coli (in words): E. coli negative control without T-box riboswitch.
Data set [10] has as its system E. faecalis ATCC 29212. Description: Broth microdilution MIC.
The test system of data set [11] is S. aureus ATCC 29213. Description: MBC determination. The settings on record: for S. aureus (MBC): Table 5 analogs, triplicate experiments, N/O = not observed at concentrations tested (512-0.25 μg/mL).
Text: as §3, §4

Another data set has as its system S. aureus. Description: Disc diffusion assay (DDA) of PKZ6 and PKZ18 analogs with S. aureus. Conditions: Table 4, 150 μg/ml, ✓ = zone of inhibition observed.
Text: as §3
All compounds were tested at a concentration of 150 μg/ml.

Setting [12] is: S. aureus ATCC 29213, N/O = not observed.
Setting [13] is: Staphylococcus aureus, ATCC29213, Table 5 analogs, triplicate experiments, N/O = not observed at concentrations tested (512-0.25 μg/mL), read-out: S. aureus MIC.
The mark [14] stands for this setting: Escherichia coli, ATCC25922, Table 5 analogs, triplicate experiments, N/O = not observed at concentrations tested (512-0.25 μg/mL), read-out: E. coli MIC.

Eight molecules from US10266527B2, “T-box riboswitch-binding anti-bacterial compounds” (THE RESEARCH FOUNDATION FOR THE STATE UNIVERSITY OF NEW YORK, priority 2013, dated 2019) can be followed below.

As usually defined, the MIC is the smallest concentration in the dilution series that meets the test's criterion for growth inhibition. By MBC is commonly meant the smallest concentration meeting the test's criterion for killing.

In brackets after ≈: the same amount, converted by molar mass. Entries after “also recorded” stand apart in the source; their conditions may differ. Where two headings read alike, the source gives them in different places.

With `CCn1c(=O)c(C(=O)NCCN2CCNCC2)c(O)c2ccccc21` [Compound 7], the MIC in the data set with S. pneumoniae ATCC 49619 was 128 µg/mL (≈ 372 µM); in the data set with P. aeruginosa ATCC 27853, “N/O (N/D)”; in the data set on B. cereus ATCC 7064 [2] it was 512 µg/mL (≈ 1490 µM); in the data set with B. subtilis BGSC 1A1 [3], 32 µg/mL (≈ 92.9 µM); against S. aureus ATCC 29213 [4] (setting [12]), “N/O (N/D)”; with E. coli ATCC 25922 [9] (Escherichia coli, ATCC25922, E. coli ATCC 25922, N/O = not observed, read-out: MIC), 512 µg/mL (≈ 1490 µM). The MIC in the data set on E. faecalis ATCC 29212 [10] (Enterococcus faecalis, ATCC29212, N/O = not observed, read-out: MIC) worked out at 512 µg/mL (≈ 1490 µM). Moreover, the “16 hr post exposure % Live” value in data set [1] (32 ug/ml) is on record as 100%; in [1] (64 ug/ml), 80%; in data set [1] (128 ug/ml), 0%. For the same molecule, the “16 hr post exposure Morphology” value in [1] (32 ug/ml) is “Normal”; in [1] (64 ug/ml), “Mix of Normal and Detached”; in data set [1] (128 ug/ml), “Rounded and Detached”. The figures for the “24 hr post exposure % Confluent” value in data set [1] (32 ug/ml), in [1] (64 ug/ml) and in data set [1] (128 ug/ml) were 90%, 80% and 0%, respectively. Besides, the “24 hr post exposure % Live” value was 90% in [1] (32 ug/ml), 75% in data set [1] (64 ug/ml) and 0% in [1] (128 ug/ml). The “24 hr post exposure Morphology” value in data set [1] (32 ug/ml) is “Normal”; in data set [1] (64 ug/ml) it was “Mix of Normal and Detached”; in data set [1] (128 ug/ml) it was “Rounded and Detached”. Besides, the ZOI observed result in the data set on B. subtilis was “✓”. For the same molecule, in the data set on B. subtilis BGSC 1A1 [3], the “antibacterial activity against B. subtilis (in words)” value is listed as “active”. Also, the MBC is 512 µg/mL (≈ 1490 µM) in the data set with E. coli ATCC 25922 [5] (Escherichia coli, ATCC25922, E. coli ATCC 25922, read-out: MBC); “IND” in the data set with B. subtilis BGSC 1A1 [6] (IND = indeterminate); “N/O” against E. faecalis ATCC 29212 [7]; “N/O” with B. cereus ATCC 7064 [8] (N/O = not observed). Moreover, the “antibacterial activity against E. coli (in words)” value in the data set on E. coli ATCC 25922 [9] is reported as “moderate antibacterial activity”.

Turning to `Cc1sc(NC(=O)C2C3CCC(C3)C2C(=O)O)nc1-c1ccc(C(C)C)cc1` (centres unmarked) [Compound 18], the MIC in the data set with S. pneumoniae ATCC 49619 is 64 µg/mL (≈ 161 µM); in the data set with P. aeruginosa ATCC 27853, “N/O (N/D)”; in the data set with B. cereus ATCC 7064 [2], 64 µg/mL (≈ 161 µM); in the data set on B. subtilis BGSC 1A1 [3] it was 64 µg/mL (≈ 161 µM); in the data set with S. aureus ATCC 29213 [4] (Staphylococcus aureus, ATCC29213, S. aureus ATCC 29213, N/O = not observed, read-out: MIC), 64 µg/mL (≈ 161 µM); against E. coli ATCC 25922 [9] (E. coli ATCC 25922, N/O = not observed), “N/O (N/D)”. Moreover, the MIC entry in the data set with E. faecalis ATCC 29212 [10] (N/O = not observed) is listed as “N/O (N/D)”. For the same molecule, the “growth inhibition of S. pneumoniae (in words)” value with S. pneumoniae ATCC 49619 (at moderate concentrations) is “inhibited growth”. The “16 hr post exposure % Live” value in data set [1] (32 ug/ml), in [1] (64 ug/ml) and in data set [1] (128 ug/ml) was 100% each time. Further, the “16 hr post exposure Morphology” value in data set [1] (32 ug/ml), in data set [1] (64 ug/ml) and in [1] (128 ug/ml) was “Normal” throughout. In addition, the “24 hr post exposure % Confluent” value came out at 90% in data set [1] (32 ug/ml), 90% in data set [1] (64 ug/ml) and 15% in [1] (128 ug/ml). For the same molecule, the “24 hr post exposure % Live” value turned out to be 100% in [1] (32 ug/ml), 90% in data set [1] (64 ug/ml) and 15% in data set [1] (128 ug/ml). In addition, the “24 hr post exposure Morphology” value is “Normal” in [1] (32 ug/ml); “Mix of Normal and Detached” in data set [1] (64 ug/ml); “Rounded and Detached” in data set [1] (128 ug/ml). Besides, the ZOI observed entry in the data set with B. subtilis is recorded as “✓”. The “growth inhibition of B. cereus (in words)” value in the data set with B. cereus ATCC 7064 [2] (at moderate concentrations) is reported as “inhibited growth”. Also, the “antibacterial activity against B. subtilis (in words)” value with B. subtilis BGSC 1A1 [3] is “inhibited growth; also recorded: active”. Also, the “antibacterial activity against S. aureus (in words)” value in the data set with S. aureus ATCC 29213 [4] is “inhibited growth; also recorded: displayed antibacterial properties”. The minimum bactericidal concentration (MBC) entry was “N/O” against S. aureus ATCC 29213 [11] (setting [12]); 64 µg/mL (≈ 161 µM) in the data set with B. subtilis BGSC 1A1 [6] (Bacillus subtilis, BGSC1A1, IND = indeterminate, read-out: MBC); 64 µg/mL (≈ 161 µM) in the data set with B. cereus ATCC 7064 [8] (Bacillus cereus, ATCC7064, N/O = not observed, read-out: MBC). Further, in the data set on E. coli ATCC 25922 [9], the “antibacterial activity against E. coli (in words)” value was “did not inhibit growth”.

As to `CC(C)CCNC(=O)c1c(O)n2c3c(cccc3c1=O)CCC2` [Compound 0603], in the data set with S. aureus, the ZOI observed result is on record as “✓”. For the same molecule, the MIC in the data set with S. aureus ATCC 29213 [4] (setting [13]) and in the data set on E. coli ATCC 25922 [9] (setting [14]) was 512 µg/mL (≈ 1630 µM) each time. In addition, the “S. aureus (MBC)” value in the data set on S. aureus ATCC 29213 [11] is recorded as “N/O”. For the same molecule, the “E. coli (MBC)” value in the data set on E. coli ATCC 25922 [5] is “N/O”.

`CC1CC(NC(=O)C2C3CCC(C3)C2C(=O)O)CC(C)(C)C1` (centres unmarked) [Compound 0605]: the ZOI observed result in the data set with S. aureus is given as “✓”.

Take `O=C(NCCN1CCNCC1)c1c(O)c2ccccc2[nH]c1=O` [Compound 0607]: the ZOI observed entry in the data set with S. aureus is on record as “✓”. Further, the MIC in the data set on S. aureus ATCC 29213 [4] (setting [13]) is 512 µg/mL (≈ 1620 µM); in the data set on E. coli ATCC 25922 [9] (setting [14]), 256 µg/mL (≈ 809 µM). Besides, the “S. aureus (MBC)” value with S. aureus ATCC 29213 [11] is reported as “N/O”. Further, in the data set with E. coli ATCC 25922 [5], the “E. coli (MBC)” value is “N/O”.

As for `O=C(NCCNCCO)c1c(O)c2cccc3c2n(c1=O)CCC3` [Compound 0609], the ZOI observed entry with S. aureus was “✓”.

For the molecule `CCCn1c(=O)c(C(=O)NCCN2CCNCC2)c(O)c2ccccc21` [Compound 0610], the ZOI observed entry in the data set with S. aureus is reported as “✓”.

Consider `O=c1cc(O)c2c(=O)n3c4c(cccc4c2o1)CCC3` [Compound 0611], for which the ZOI observed entry with S. aureus is on record as “✓”.
